According to ChEMBL document CHEMBL5108065 (J Med Chem, 2022):
Activity calls are given as the source filed them. No cut-off for these calls is given here.

Assays:
Plasmodium falciparum [1] = assay: Antimalarial activity against KAF156 resistant Plasmodium falciparum Dd2 harbouring pf-carl mutated loci assessed as inhibition of parasite growth pretreated for 48 hrs followed by [3H]-hypoxanthine addition measured after 24 hrs by scintillation counting method; type: functional, organism-based
Plasmepsin X [2] = molecular target: T1, Plasmepsin X (Plasmodium falciparum (isolate 3D7), UniProt Q8IAS0); assay: Inhibition of PMX in Plasmodium falciparum 3D7 HA epitope
T1 sequence (Q8IAS0 whole entry): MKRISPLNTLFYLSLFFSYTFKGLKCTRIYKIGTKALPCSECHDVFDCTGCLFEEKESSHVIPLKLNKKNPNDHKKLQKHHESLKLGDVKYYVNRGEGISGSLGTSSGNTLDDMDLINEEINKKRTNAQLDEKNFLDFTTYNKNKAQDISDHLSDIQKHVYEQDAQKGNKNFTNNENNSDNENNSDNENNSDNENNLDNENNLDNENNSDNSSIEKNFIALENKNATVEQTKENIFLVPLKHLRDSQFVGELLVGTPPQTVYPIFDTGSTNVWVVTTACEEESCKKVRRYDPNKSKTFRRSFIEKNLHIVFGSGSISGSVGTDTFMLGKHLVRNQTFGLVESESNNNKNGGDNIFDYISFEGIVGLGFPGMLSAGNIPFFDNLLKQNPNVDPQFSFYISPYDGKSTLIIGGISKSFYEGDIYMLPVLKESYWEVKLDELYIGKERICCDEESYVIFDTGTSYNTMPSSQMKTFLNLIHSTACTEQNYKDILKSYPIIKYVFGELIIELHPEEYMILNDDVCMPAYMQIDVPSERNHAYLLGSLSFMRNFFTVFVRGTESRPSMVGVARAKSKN

Plasmepsin IX = molecular target: T2, Plasmepsin IX (Plasmodium falciparum, UniProt Q8ILG2); assay: Inhibition of PMIX in Plasmodium falciparum 3D7 HA epitope
T2 sequence (Q8ILG2 whole entry): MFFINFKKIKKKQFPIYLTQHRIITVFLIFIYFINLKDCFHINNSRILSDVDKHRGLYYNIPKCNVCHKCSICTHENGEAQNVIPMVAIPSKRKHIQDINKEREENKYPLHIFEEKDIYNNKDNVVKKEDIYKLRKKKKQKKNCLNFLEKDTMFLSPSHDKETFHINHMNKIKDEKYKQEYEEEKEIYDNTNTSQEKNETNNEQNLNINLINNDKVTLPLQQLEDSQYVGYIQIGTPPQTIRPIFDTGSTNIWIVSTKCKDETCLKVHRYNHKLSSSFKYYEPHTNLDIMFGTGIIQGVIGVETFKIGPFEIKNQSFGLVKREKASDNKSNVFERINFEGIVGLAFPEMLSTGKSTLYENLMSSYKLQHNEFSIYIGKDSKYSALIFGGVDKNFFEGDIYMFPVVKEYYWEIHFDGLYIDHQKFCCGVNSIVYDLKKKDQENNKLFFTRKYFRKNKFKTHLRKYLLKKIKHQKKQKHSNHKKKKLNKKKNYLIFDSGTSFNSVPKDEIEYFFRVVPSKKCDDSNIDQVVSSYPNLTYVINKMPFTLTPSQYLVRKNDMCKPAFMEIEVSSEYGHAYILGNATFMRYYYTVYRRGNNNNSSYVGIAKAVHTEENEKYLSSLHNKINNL

[3] = Volume of distribution at steady state in Cynomolgus monkey blood at 1 mg/kg, iv measured at 2 to 72 hrs by LC-MS/MS analysis; type: ADME, organism-based, Macaca fascicularis; conditions: whole blood, time 2-72 hrs, read-out: Vdss
[4] = AUC in Cynomolgus monkey blood at 1 mg/kg, iv measured at 2 to 72 hrs by LC-MS/MS analysis; type: ADME, organism-based, Macaca fascicularis; set-up: dose 1 mg/kg, time 2-72 hrs, route iv; conditions: whole blood
[5] = Terminal half life in Cynomolgus monkey blood at 1 mg/kg, iv measured at 2 to 72 hrs by LC-MS/MS analysis; type: ADME, organism-based, Macaca fascicularis; conditions: whole blood, time 2-72 hrs, read-out: beta t1/2 (converted)
[6] = Cmax in Cynomolgus monkey blood at 10 mg/kg, po measured at 2 to 72 hrs by LC-MS/MS analysis; type: ADME, organism-based, Macaca fascicularis; set-up: dose 10 mg/kg, time 2-72 hrs, route po; conditions: whole blood
[7] = Cardiotoxicity in anesthetized guinea-pig assessed as decrease in arterial blood pressure; type: toxicity, Cavia porcellus; conditions: 0.09 µM, DDE = dose-dependent effect, dose 90 nM
[8] = Toxicity in Han Wistar rat assessed as effect on mydriasis at 250 to 1000 mg/kg, po administered every other day for 7 days; type: organism-based; conditions: in vivo, 168 h, dose 250-1000 mg/kg, time 7 day
[9] = Toxicity in Han Wistar rat assessed as effect on pupillary reflex at 250 to 1000 mg/kg, po administered every other day for 7 days; type: organism-based; conditions: in vivo, 168 h, dose 250-1000 mg/kg, time 7 day
[10] = Toxicity in Han Wistar rat assessed as effect on scotopic amplitude at 1000 mg/kg, po administered every other day for 7 days by ERG analysis; type: organism-based; conditions: in vivo, 168 h, time 7 day
in vivo = conditions: cynomolgus monkey, blood, po, 10 mg/kg
Plasmepsin X [11] = molecular target: T1, Plasmepsin X; assay: biochemical
Description: Inhibition of Plasmodium falciparum recombinant C-terminal TEV cleavable 8his-tagged PMX by FRET assay

[12] = Drug metabolism in Cynomolgus monkey hepatocytes assessed as (S)-6-(2-chloro-3-((6-cyclopropylpyridin-3-yl)amino)phenyl)-2-imino-6-methyl-3-((2S,4S)-2-methyltetrahydro-2H-pyran-4-yl)tetrahydropyrimidin-4(1H)-one metabolite formation; type: ADME, cell-based, Macaca fascicularis, Hepatocyte
Plasmodium falciparum [13] = assay: Antimalarial activity against asexual blood stage Plasmodium falciparum 3D7 assessed as parasite growth inhibition by measuring parasitemia by LDH assay; type: functional, organism-based
Plasmodium falciparum [14] = assay: Resistance development in asexual blood stage Plasmodium falciparum Dd2-B2 assessed as minimum inoculum of resistance at 3 times IC50 measured on day 30 using at 2 x 10^7 inoculum by SYBR dye based flow cytometry; type: functional, organism-based; conditions: time 30.0 day
Plasmodium berghei [15] = assay: Antimalarial activity against Plasmodium berghei sporozoites infected in naive C57B/6 liver mouse model assessed as decrease in liver infection at 50 mg/kg, po administered once daily for 1 to 2 days by Giemsa staining based microscopic analysis; type: functional, organism-based; conditions: time 1-2 day
Plasmodium berghei [16] = assay: Antimalarial activity against Plasmodium berghei sporozoites infected in naive C57B/6 liver mouse model assessed as decrease in liver infection at 50 mg/kg, po administered twice daily for 1 to 2 days by Giemsa staining based microscopic analysis; type: functional, organism-based; conditions: time 1-2 day
[17] = Drug metabolism in human hepatocytes assessed as (S)-6-(2-chloro-3-((6-cyclopropylpyridin-3-yl)amino)phenyl)-2-imino-6-methyltetrahydropyrimidin-4(1H)-one metabolite formation; type: ADME, cell-based, Hepatocyte
[18] = Drug metabolism in dog hepatocytes assessed as (S)-6-(2-chloro-3-((6-cyclopropylpyridin-3-yl)amino)phenyl)-2-imino-6-methyltetrahydropyrimidin-4(1H)-one metabolite formation; type: ADME, cell-based, Canis lupus familiaris, Hepatocyte
[19] = molecular target: Voltage-dependent L-type calcium channel subunit alpha-1C (Homo sapiens, UniProt Q13936); assay: Inhibition of Cav1.2 (unknown origin) cardiac ion channel by patch clamp assay; type: toxicity
Sequence of Voltage-dependent L-type calcium channel subunit alpha-1C (Q13936 whole entry): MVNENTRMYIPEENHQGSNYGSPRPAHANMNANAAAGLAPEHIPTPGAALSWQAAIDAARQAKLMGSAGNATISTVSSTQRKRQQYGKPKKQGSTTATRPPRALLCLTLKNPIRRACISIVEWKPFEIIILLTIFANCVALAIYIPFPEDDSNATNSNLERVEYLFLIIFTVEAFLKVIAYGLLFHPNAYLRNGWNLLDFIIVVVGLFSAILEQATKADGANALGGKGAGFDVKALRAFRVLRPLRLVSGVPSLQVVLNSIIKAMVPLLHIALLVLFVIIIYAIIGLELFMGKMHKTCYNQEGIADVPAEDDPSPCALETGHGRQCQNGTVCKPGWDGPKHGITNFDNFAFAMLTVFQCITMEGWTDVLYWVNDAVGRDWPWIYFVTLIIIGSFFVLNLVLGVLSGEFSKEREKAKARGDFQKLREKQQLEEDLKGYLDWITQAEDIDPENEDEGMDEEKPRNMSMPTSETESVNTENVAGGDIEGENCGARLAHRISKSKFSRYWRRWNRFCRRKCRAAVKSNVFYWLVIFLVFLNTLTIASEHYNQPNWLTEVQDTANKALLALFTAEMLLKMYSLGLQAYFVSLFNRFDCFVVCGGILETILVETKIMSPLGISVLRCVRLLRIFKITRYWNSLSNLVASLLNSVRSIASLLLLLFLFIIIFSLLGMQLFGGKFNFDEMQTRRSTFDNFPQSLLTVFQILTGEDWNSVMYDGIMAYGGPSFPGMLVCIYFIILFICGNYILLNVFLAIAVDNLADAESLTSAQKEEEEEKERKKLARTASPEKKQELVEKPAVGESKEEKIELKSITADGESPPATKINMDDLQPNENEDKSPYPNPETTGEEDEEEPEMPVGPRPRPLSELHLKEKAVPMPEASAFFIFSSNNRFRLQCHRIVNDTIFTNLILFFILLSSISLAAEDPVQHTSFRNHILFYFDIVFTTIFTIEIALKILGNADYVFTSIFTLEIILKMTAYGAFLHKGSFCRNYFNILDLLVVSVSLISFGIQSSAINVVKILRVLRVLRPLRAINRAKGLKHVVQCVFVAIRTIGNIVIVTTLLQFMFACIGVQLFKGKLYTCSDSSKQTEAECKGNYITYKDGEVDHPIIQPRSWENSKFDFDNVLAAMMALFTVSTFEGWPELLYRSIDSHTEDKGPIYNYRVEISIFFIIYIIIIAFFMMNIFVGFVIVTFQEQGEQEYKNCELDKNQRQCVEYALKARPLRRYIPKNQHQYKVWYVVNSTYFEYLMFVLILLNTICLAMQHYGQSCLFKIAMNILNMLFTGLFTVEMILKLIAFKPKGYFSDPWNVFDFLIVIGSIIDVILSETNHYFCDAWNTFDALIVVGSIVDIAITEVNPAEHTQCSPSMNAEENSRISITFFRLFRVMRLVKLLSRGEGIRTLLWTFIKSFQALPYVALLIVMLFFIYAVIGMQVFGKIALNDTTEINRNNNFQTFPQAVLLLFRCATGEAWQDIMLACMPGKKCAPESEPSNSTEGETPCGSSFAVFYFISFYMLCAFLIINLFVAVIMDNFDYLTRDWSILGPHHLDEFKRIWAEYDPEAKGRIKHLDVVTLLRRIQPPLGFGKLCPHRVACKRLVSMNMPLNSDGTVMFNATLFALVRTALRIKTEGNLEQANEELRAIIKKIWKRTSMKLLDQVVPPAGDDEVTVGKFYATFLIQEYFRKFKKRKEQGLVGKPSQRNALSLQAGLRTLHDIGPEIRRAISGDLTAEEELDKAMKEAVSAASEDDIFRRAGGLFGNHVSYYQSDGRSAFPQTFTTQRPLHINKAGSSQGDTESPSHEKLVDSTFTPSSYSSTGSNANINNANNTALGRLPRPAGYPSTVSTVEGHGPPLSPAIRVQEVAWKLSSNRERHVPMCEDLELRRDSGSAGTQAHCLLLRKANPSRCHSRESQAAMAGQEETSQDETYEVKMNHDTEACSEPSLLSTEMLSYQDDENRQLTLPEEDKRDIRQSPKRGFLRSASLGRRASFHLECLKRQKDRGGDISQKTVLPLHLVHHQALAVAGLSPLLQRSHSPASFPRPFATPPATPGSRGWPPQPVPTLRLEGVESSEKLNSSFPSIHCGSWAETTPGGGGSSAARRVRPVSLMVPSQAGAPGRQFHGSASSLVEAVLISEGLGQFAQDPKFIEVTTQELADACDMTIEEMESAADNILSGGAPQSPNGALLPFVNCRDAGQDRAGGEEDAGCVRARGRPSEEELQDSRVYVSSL

[20] = molecular target: T3, A-type voltage-gated potassium channel KCND3 (Homo sapiens, UniProt Q9UK17); assay: Inhibition of Kv4.3 (unknown origin) by patch clamp method; type: toxicity
T3 sequence (Q9UK17 whole entry): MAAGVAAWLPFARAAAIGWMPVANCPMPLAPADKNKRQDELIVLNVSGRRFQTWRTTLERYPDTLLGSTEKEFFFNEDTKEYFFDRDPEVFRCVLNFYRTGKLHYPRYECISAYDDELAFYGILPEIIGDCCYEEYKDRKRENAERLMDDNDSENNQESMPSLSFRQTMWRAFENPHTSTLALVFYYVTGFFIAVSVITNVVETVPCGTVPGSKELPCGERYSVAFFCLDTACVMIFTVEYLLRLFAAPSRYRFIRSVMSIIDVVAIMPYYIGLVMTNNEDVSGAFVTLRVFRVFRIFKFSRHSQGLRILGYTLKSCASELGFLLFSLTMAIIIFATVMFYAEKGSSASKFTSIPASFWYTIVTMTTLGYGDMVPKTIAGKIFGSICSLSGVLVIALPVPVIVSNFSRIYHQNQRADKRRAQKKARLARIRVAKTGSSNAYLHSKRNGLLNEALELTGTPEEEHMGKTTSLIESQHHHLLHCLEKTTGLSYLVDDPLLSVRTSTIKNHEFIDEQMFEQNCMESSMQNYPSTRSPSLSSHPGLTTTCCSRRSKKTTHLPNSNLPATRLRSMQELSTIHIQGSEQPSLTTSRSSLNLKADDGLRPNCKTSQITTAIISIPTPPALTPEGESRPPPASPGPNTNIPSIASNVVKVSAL

`C[C@H]1C[C@@H](N2C(=N)N[C@](C)(c3cccc(NC(=O)c4cccc(C#N)c4)c3Cl)CC2=O)CCO1` showed an IC50 (Plasmodium falciparum [1]) of 19 nM, an IC50 (Plasmepsin X [2]) of 7 nM and an IC50 (Plasmepsin IX) of 142 nM. It also gave a Vd [3] of 3.07 L/kg, an AUC [4] of 1.91 µM·h and a half-life [5] of 4.1 h. The Cmax [6] was 2560 nM, the Activity [7] was “Dde” and the Activity [8] was “Non-Toxic”. The Activity [9] was “Non-Toxic”, the Activity [10] was “Non-Toxic” and the Tmax (in vivo) was 1 h. It also gave an IC50 (Plasmepsin X [11]) of 7 nM.
For `C[C@H]1C[C@@H](N2C(=N)N[C@](C)(c3cccc(Nc4ccc(C5CC5)nc4)c3Cl)CC2=O)CCO1`, the Drug metabolism [12] was “Metabolite_Detected”, the IC50 (Plasmodium falciparum [13]) was 14 nM and the Activity (Plasmodium falciparum [14]) was “Active”. For the same molecule, the Activity (Plasmodium berghei [15]) was “Active”, the Activity (Plasmodium berghei [16]) was “Active” and the Drug metabolism [17] was “Metabolite_Detected”. The Drug metabolism [18] was “Metabolite_Detected”, the IC50 [19] was 27000 nM and the IC50 [20] was 28000 nM.
